Values quoted from earlier work as cited in patent US12383593B2, “Organic pain relief and hair growth composition” (The Tao Talit Corporation, priority 2021, dated 2025).
Each block holds one compound with its values, some of them ahead of it.

Assays:
[1] = test system: capsaicin irritancy, sprains, heat hypersensitivity and headaches
[2] = test system: MAPKs and the NF-κB pathway; conditions: mouse peritoneal macrophages
orofacial nociception = conditions: in comparison with S. lavandulifolia essential oil

- solubility in organic solvents: very soluble
- solubility in water: nearly insoluble
SMILES: C=C1C2CCC(C2)C1(C)C (stereo not drawn) [Camphene]

- solubility in organic solvents: miscible
- solubility in water: insoluble
SMILES: Cc1ccc(C(C)C)cc1 [p-Cymene]

SMILES: C=C(C)[C@H]1CC=C(C)CC1 [limonene, Limonene]
- action on a lymphoma cell line (lymphoma cell line; lymphoma cell line): anti-proliferative action
- normal lymphocyte viability (lymphoma cell line; normal lymphocytes): without modifying normal lymphocyte viability

SMILES: CC1CCC(C(C)C)C(O)C1 (stereo not drawn) [menthol, Menthol]
- cold allodynia and hyperalgesia ([1]; high concentrations, topical use or intraplantar injection): generated cold allodynia and hyperalgesia
- analgesic effect of topically applied menthol ([1]; low to moderate concentrations, topical): inhibit capsaicin irritancy, sprains, heat hypersensitivity and headaches

SMILES: CC1=CCC2CC1C2(C)C (stereo not drawn) [Alpha-pinene, α-pinene]
- anti-inflammatory activity [2]: anti-inflammatory activity through the suppression of mitogen-activated protein kinases (MAPKs) and the nuclear factor-kappa B (NF-κB) pathway

- solubility in ethanol (ethanol): soluble
- solubility in water and glycerin (water and glycerin): poorly soluble
SMILES: CC(C)=CCCC(C)(O)C1CC=C(C)CC1 (stereo not drawn) [(−)-α-bisabolol, 6-methyl-2-(4-methylcyclohex-3-en-1-yl)-hept-5-en-2-ol]
- antinociceptive effect in the pain models (orofacial nociception): stronger effect
